We go through 1 compound from publication PMC10708113, “Comparative Study of Essential Oils from Different Organs of Syzygium cumini (Pamposia) Based on GC/MS Chemical Profiling and In Vitro Antiaging Activity” (Molecules, 2023).

SMILES strings stand for the structures. Converted amounts (≈) assume the structure as drawn.

The test addresses T1, collagenase.
T1 construct: gene colG
Briefly: fluorometric collagenase inhibitor screening kit. Type of test: biochemical. The note with it: 15 min preincubation at 25 °C; kinetic read 60 min at 37 °C; ex 490 / em 520 nm.

On to `Cc1cnc(NC(=O)C2=C(O)c3ccccc3S(=O)(=O)N2C)s1` [Meloxicam], for which the half-inhibitory concentration (IC50) was found to be 38.48 µg/mL (≈ 110 µM).
